Calls of active or inactive are those of the source.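 How the source made its calls: active means compounds giving half or more protection of infected cells from virus-caused growth loss, again on retest; inactive means the rest.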

This experiment deals with CEM cells HIV-1 protection, formazan growth assay. Kind of experiment: NCI AIDS Antiviral Assay. To be noted: for IC50: measured here: growth of uninfected CEM cells. An outline of the steps:
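Screen of anti-HIV-1 activity in human CEM cells using a formazan-based growth measurement at five drug concentrations. Hits with 50% or greater protection were repeated, and confirmation required reproducible complete protection.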

With `O=C1Cc2c([nH]c3c(Cl)cccc23)-c2ccccc2N1`, the EC50 was over 200 µM and the IC50 turned out to be 11.5 µM.
The like results for `CCOC(=O)c1ccc(NC(=O)Nc2ncccc2C)cc1` were, in that order, over 200 µM and over 200 µM.
For `COC(=O)c1ccccc1NC(=S)NN(C)C`, in that order: over 200 µM and 151 µM.
Regarding `CCC(C)C(NC(=O)c1ccccc1SC(=O)OCCCC[n+]1ccccc1)C(N)=O` (stereo not drawn), the outcome was inactive.
`Cc1csc2nc(-c3ccccc3)c(/C=N/NC(=O)CN(C)C)n12`: the outcome was inactive.
For `CC(=O)O[C@H]1CC[C@H]2[C@@H]3CCC(C(C)=O)[C@H](C(=O)O)[C@H]3CC[C@]12C` (stereo partly drawn), the EC50 was over 200 µM and the IC50 was over 200 µM.
For `CCOC(=O)COc1cccc2c1C(=O)CCO2`, the outcome was inactive.
As to `COc1ccc2c(c1)C1Oc3ccccc3CC1(O)CO2` (stereo not drawn), the EC50 is over 200 µM and the IC50 is 132 µM.
For `C[N+]12CCCCC1CC(=O)CC2` (stereo not drawn), the EC50 is over 851 µM and the IC50 is over 851 µM.
Take `CCc1nnc(-c2nsc3ccccc23)s1`: the EC50 was over 145 µM and the IC50 came out at 126 µM.
With `Cc1cn(C2C[C@H]3ONC[C@H]3O2)c(=O)[nH]c1=O` (stereo partly drawn), the EC50 was over 200 µM and the IC50 is over 200 µM.
Take `CN(C(=S)Nc1ccccc1)c1cc(N2CCCC2)ccn1`: the EC50 is over 200 µM and the IC50 was found to be 29.5 µM.
As for `CCOC(=O)c1s/c(=N\Nc2nc3ccccc3cc2C2OCCO2)n(Cc2ccccc2)c1C`, the EC50 was over 5.5 µM and the IC50 was over 5.5 µM.
For the molecule `c1ccc(Nc2nnc(-c3ccccc3Nc3ccccc3-c3nnc(Nc4ccccc4)s3)s2)cc1`, the EC50 was over 200 µM and the IC50 was 105 µM.
For `N#CC(C#N)=Cc1c(O)ccc2ccccc12`, in that order: over 200 µM and 9.77 µM.
For `N#C/C(=C1/c2cc([N+](=O)[O-])ccc2-c2c1cc([N+](=O)[O-])cc2[N+](=O)[O-])N1CCCCC1`, in that order: over 200 µM and over 200 µM.
As to `COc1ccc(-c2nc(Nc3ccccc3)sc2Cc2sc(Nc3ccccc3)nc2-c2ccc(OC)cc2)cc1`, the result was inactive.
In the case of `C=CCCCCCCCCCOC1C=CC(O)C(CO)O1` (stereo not drawn), the EC50 was over 200 µM and the IC50 was 35.5 µM.
For `O=C1c2ccc(O)cc2OC(c2cc(O)c(O)c(O)c2)C1O` (stereo not drawn), in that order: over 200 µM and 11.7 µM.
In the case of `CO/C=C/CCCN(C1CCCCC1)C(C#N)c1ccccc1` (stereo not drawn), the EC50 was over 16.6 µM and the IC50 is over 16.6 µM.
Take `O=C(O)c1cc2c(cc1CC(Cc1ccc3c(c1)CCC3)C(=O)O)CCC2` (stereo not drawn): the EC50 is over 200 µM and the IC50 worked out at 105 µM.
Regarding `CCN(CC)CCCC(C)Nc1c2cc(OC)cc(C)c2nc2c(C)c(Cl)ccc12` (stereo not drawn), the outcome was inactive.
As to `CCCCCCOP(=O)(OCCCCCC)C(NC(=O)OCC)(C(F)(F)F)C(F)(F)F`, the EC50 was over 200 µM and the IC50 was determined as 21.9 µM.
`CC1(C)/C(=N\O)C2(C#N)CCC1C2` (stereo not drawn): the EC50 is over 200 µM and the IC50 came out at 166 µM.
Take `CC1(C)CCCCCC(O)C(O)CCC(C)(C)C1=O` (stereo not drawn): the EC50 was over 200 µM and the IC50 was over 200 µM.
As to `COc1ccc2nc3cccc([N+](=O)[O-])c3c(NCCN(CCO)CCO)c2c1`, the EC50 is over 2 µM and the IC50 came out at 0.0977 µM.
With `Cc1cccc(/C=N/NC(=S)N(C)CCc2ccccn2)n1`, the EC50 was over 2 µM and the IC50 was 0.0331 µM.
In the case of `CC1=NC(=O)CC2=C1C(C)N(Cc1ccccc1)C2=O` (stereo not drawn), the EC50 is over 355 µM and the IC50 was over 355 µM.
Turning to `CCSc1nc(C)nc2c1sc1nc3ccccc3n12`, the EC50 is over 100 µM and the IC50 is over 100 µM.
With `S=C(SSC(=S)N(Cc1ccccc1)Cc1ccccc1)N(Cc1ccccc1)Cc1ccccc1`, the EC50 is over 200 µM and the concentration for half-maximal inhibition (IC50) was 15.1 µM.
Take `Cc1cc(C2(c3cc(C)c(O)c(Br)c3)OS(=O)(=O)c3ccccc32)cc(Br)c1O`: the EC50 was over 200 µM and the IC50 is over 200 µM.
Turning to `CCOP(=O)(OCC)/C(C#N)=C/c1cccn1CC(C)C`, the EC50 is 60.3 µM and the IC50 turned out to be 123 µM.
The like results for `CC(C)(C)OC(=O)/C=C/C(=O)O/C=C/[N+](=O)[O-]` were, in that order, over 200 µM and over 200 µM.
In the case of `Brc1ccc(C2SCc3nc4ccccc4n32)cc1` (stereo not drawn), the result was inactive.
As to `CCOC(=O)C(=O)Nc1c(F)cc(F)cc1Br`, the EC50 is over 813 µM and the concentration for half-maximal inhibition (IC50) was over 813 µM.
With `C#CCCOC1(OC)N=NC(C)(C)O1` (stereo not drawn), the EC50 is over 200 µM and the IC50 was over 200 µM.
Consider `Cc1cc(C)c(NC(=O)c2ccccc2)c(=O)o1`, for which the EC50 was over 200 µM and the IC50 is over 200 µM.
Take `O=C(O)c1c(O)c2cc(Cl)ccc2oc1=O`: the EC50 is over 200 µM and the IC50 came to 158 µM.
The like results for `Clc1ccc(-c2c(C3=NCCCN3)nnn2-c2ccc(Cl)cc2)cc1` were, in that order, over 490 µM and 30.9 µM.
`O=C(Cc1ccccc1)OCCOCCOCCOCCOCCOCCOCCOCCOCCOC(=O)Cc1ccccc1`: the result was inactive.
The same measure, in the same setting: the result for `CCCCCCC(O)CC[C@H]1CCC[C@@H](C)N1` (stereo partly drawn) reads “inactive”.
On to `Clc1ccccc1C(=Nc1ccccc1)C(=Nc1ccccc1)c1ccccc1Cl`, for which the EC50 was over 1.74 µM and the half-inhibitory concentration (IC50) is over 1.74 µM.
Regarding `CN(/N=C(\C(=O)O)c1ccccc1)C1=NCCCN1`, the EC50 was over 200 µM and the IC50 is over 200 µM.
Regarding `Cc1cccc2c(NCCN(C)C)c3cccc(C(=O)NCCN(C)C)c3nc12`, the EC50 was over 0.2 µM and the IC50 worked out at 0.195 µM.
Take `C=CCOC(=O)/C(=C\c1ccc(OC)c(OC)c1)c1ccc(OC)c(OC)c1`: the EC50 is over 200 µM and the IC50 is over 200 µM.
For the molecule `CCOC(=O)/C(ON)=C(/CC/C(C(=O)OC)=C(\ON)C(=O)OCC)C(=O)OC`, the EC50 is 155 µM and the IC50 stood at 617 µM.
Regarding `COc1cc2c(cc1OC)-c1cc3ccccc3c[n+]1CC2`, the EC50 was over 200 µM and the concentration for half-maximal inhibition (IC50) was over 200 µM.
In the case of `CC(C)N1CCOC12CCCC2`, the EC50 is over 200 µM and the IC50 was 29.5 µM.
The like results for `Cc1nnc(CC#N)n1NC(=O)CC#N` were, in that order, over 200 µM and over 200 µM.
The like results for `O=C(O)C1CC2C3CCC2C1C3=O` (stereo not drawn) were, in that order, over 200 µM and over 200 µM.
Take `O=C(OCc1ccccc1)N(CCCCN(CCCNC(=O)C(F)(F)F)C(=O)OCc1ccccc1)CCCNC(=O)C(F)(F)F`: the outcome was inactive.
Regarding `C=CCN1C2Cc3cc(OC)c(OC)cc3C1Cc1cc(OC)c(OC)cc12`, the EC50 was over 603 µM and the 50% inhibitory concentration (IC50) turned out to be 135 µM.
With `O=c1ccc2ccccc2n1Cc1ccc2ccccc2n1`, the EC50 is over 200 µM and the IC50 worked out at 148 µM.
For `CN(C)P(CCP(C)C)N(C)C`, in that order: over 174 µM and over 174 µM.
For `CC(C)(CO)NC(=O)c1cccs1`, in that order: over 200 µM and over 200 µM.
For `O=C(O)c1c(F)c(F)c(S)c(F)c1F`, in that order: 17.8 µM and over 200 µM.
On to `O=c1[nH]c2ccccc2c2oc(-c3ccccc3)nc12`, for which the EC50 was over 100 µM and the IC50 was over 100 µM.
As to `COc1ccc2c(c1OC)C(=O)C2`, the EC50 is over 200 µM and the IC50 is over 200 µM.
For `Cc1ccccc1-c1nc2c(N)nc(N)nc2nc1N`, the result was inactive.
With `C=C1C(=O)OC2C1CCC(C)C1C=CC(=O)C12C` (stereo not drawn), the EC50 is over 200 µM and the IC50 was found to be 1.07 µM.
Take `Cc1nc2cc(C)[nH]c(=O)n2n1`: the EC50 was over 1510 µM and the IC50 is over 1510 µM.
On to `[O]=[Bi](=[O])[O]CC(O)CO` (stereo not drawn), for which the EC50 is over 4.37 µM and the IC50 is over 4.37 µM.
Take `c1ccc2[nH]c(-c3cscn3)nc2c1`: the EC50 was over 200 µM and the IC50 is over 200 µM.
Take `Cc1nc(N)sc1C(=O)/C=C\c1ccc2c(c1)OCO2`: the EC50 was over 871 µM and the IC50 came to 437 µM.
Turning to `Cc1ccc(NNc2cc(=O)[nH]c(=O)[nH]2)cc1Cl`, the EC50 was over 200 µM and the IC50 was found to be 4.68 µM.
For `CC[C@@]1(O)C(=O)OCc2c1cc1n(c2=O)Cc2cc3cc(O)ccc3nc2-1`, in that order: over 37.2 µM and 0.00832 µM.
As for `O=C(OCCN=c1c2ccccc2ccc2ccccc12)c1ccccc1`, the EC50 is over 200 µM and the IC50 was determined as 120 µM.
The like results for `CCCCCCCCNC(=O)C1=C(C)NC(C)=C(C(=O)NCCCCCCCC)C1` were, in that order, over 200 µM and 97.7 µM.
The like results for `CC1=CC(=O)Nc2ccccc2S1` were, in that order, over 234 µM and 85.1 µM.
`CCN(CC)C(=O)SCCSC(=O)N(CC)CC`: the EC50 is over 100 µM and the IC50 was over 100 µM.
As for `CC(C)(C)OC(=O)NCCNC(=O)OCc1ccccc1`, the EC50 was over 200 µM and the IC50 was over 200 µM.
Turning to `Cc1ccc(SCc2nc3ccccc3c(C)[n+]2[O-])cc1`, the EC50 was 9.33 µM and the 50% inhibitory concentration (IC50) is 49 µM.
As for `Cc1nnc2n1N=C(c1ccc(O)c(O)c1O)CS2`, the EC50 was over 200 µM and the IC50 was 20.4 µM.
As to `COc1ccc2c(c1)C=C(C(C)(C)C)NS2(=O)=O`, the EC50 was over 97.7 µM and the IC50 was over 97.7 µM.
Regarding `CC(=O)Nc1[nH]n(C)c(=O)c1-c1nnc(C)s1`, the EC50 is over 977 µM and the IC50 is 437 µM.
For `[N-]=[N+]=C(C(=O)OCC#CCOC(=O)C(=[N+]=[N-])S(=O)(=O)c1ccccc1)S(=O)(=O)c1ccccc1`, in that order: over 200 µM and 135 µM.
For `CCOC(=O)C(N)CSSCC(N)C(=O)OCC` (stereo not drawn), in that order: over 200 µM and over 200 µM.
For `CS1(C)=NC(=O)c2cc([N+](=O)[O-])ccc2N=1`, in that order: over 123 µM and over 123 µM.
In the case of `C=CCNC(=S)N/C=C(/C(=O)c1ccccc1)c1ccccc1`, the EC50 was over 200 µM and the half-inhibitory concentration (IC50) was determined as 182 µM.

For orientation: EC50 means the concentration giving half of the maximal effect. The IC50 is the midpoint of a concentration-inhibition curve. A low value points to greater potency.

These data come from PubChem BioAssay AID179 (DTP/NCI, 2004).
